Tests used:
[1] = target: T1, human PI3Kα (PIK3CA/PIK3R1) (Homo sapiens, UniProt P42336); assay: lipid kinase assay (ADP-Glo), PI3Kα; type: biochemical
T1 construct: purchased ProQinase, Germany 1161‐1165‐1

[2] = system: PI3K/Akt signaling in NIH3T3 cells; assay: insulin-stimulated Akt phosphorylation, Western blot, NIH3T3 cells; type: cell-based; details: 1 μM insulin for 5 min, immunoblot
Experimental: Figure 8 Treatment with 64 prodrug inhibited PI3K/Akt signaling. NIH3T3 cells were […] for 12 h and were treated with the indicated concentrations of 37 and 64. Cells were next stimulated with 1 μM insulin for 5 min, and total cell lysates were prepared. Immunoblot analysis was conducted for the expression levels of p‐AKT and GAPDH. The immunoblot is representative of three independent experiments.
NIH3T3 cells were seeded in a 96‐well plate and starved overnight (ON) with serum‐free DMEM high glucose GlutaMAXTM (Gibco) supplemented with 5000 U mL^−1 penicillin–streptomycin (Gibco). Cells were then incubated for 1 h with increasing concentrations of 64, 37, or DMSO. Subsequently, cells were stimulated for 5 min with 1 μM of insulin (#91077C, Sigma–Aldrich, USA). Cells were lysed and protein extracts were analyzed by western blot to assess the phosphorylation level of Akt on Ser473.

[3] = system: PC3 cells; assay: PC3 cell proliferation (MTT); type: cell-based; set-up: key to Cell proliferation: active: Active: able to reduce proliferation to an extent greater than 50 %; inactive: able to reduce proliferation to an extent less than 50 %
Experimental: The biological activity of each prodrug was tested by analyzing their ability to decrease PC3 proliferation as a rapid test to evaluate the PI3Ks inhibitory activity after hydrolysis in a cell‐based assay. […] The choice of using such a cut‐off was due to the intent to identify rapidly which prodrug could be hydrolyzed in the assay to release the active compound. As expected, a good correlation between rate of hydrolysis and cellular activity was observed, and esters 64–68 and 70–73 were determined to be good candidates for topical use. We decided to focus our attention on ester 64, as its half‐life was a good compromise for a prodrug. The EC50 value of this ester was then evaluated on PC3 cells, and a value of (2.3±0.8) μM was obtained.
Cell proliferation: PC3 cell proliferation was measured with a 3‐(4,5‐dimethyl thiazol‐2‐yl)‐2,5‐diphenyltetrazolium bromide (MTT)‐based colorimetric assay (#11 465 007 001 Roche Diagnostic GmbH, Germany). PC3 cells were seeded in a 96‐well plate at a concentration of 10^4 cells mL^−1. PC3 cells were treated for 72 h with increasing concentrations of 64, and MTT was added. After ON solubilization of the MTT metabolite, formazan, the absorbance (λ=550–600 nm absorbance, with a reference wavelength of 650 nm) of each well was read in a multi‐well reader (Glomax multi detection system, Promega, model number 9301‐010). The percentage of proliferating cells was calculated by relating each absolute value to the control intended as PC3 cells treated with DMSO alone. An IC50 value was then derived by plotting all data on a dose–response curve (Graph Pad software) by using nonlinear regression fit (equation [log agonist] versus response).

[4] = system: PC3 cells; assay: analysis of apoptosis, Annexin V staining; type: cell-based; details: 10 μM, 48 h
Experimental: Analysis of apoptosis: For Annexin V staining of apoptotic cells, PC3 cells were seeded at 4×10^5 cells per 6 cm dish in triplicate. Cells were incubated 48 h in the presence or absence of 10 μM 64 and were then detached with 0.1 % trypsin–EDTA, resuspended in Annexin buffer (10 mM HEPES, pH 7.4, 140 mM NaCl, 2.5 mM CaCl2), and stained for Annexin V (FITC Annexin V #640906, BioLegend, USA). Samples were analyzed by using a FACS‐Calibur flow cytometer (Becton Dickinson Immunocytometry Systems, San Jose, USA).

T1 sequence (P42336 whole entry): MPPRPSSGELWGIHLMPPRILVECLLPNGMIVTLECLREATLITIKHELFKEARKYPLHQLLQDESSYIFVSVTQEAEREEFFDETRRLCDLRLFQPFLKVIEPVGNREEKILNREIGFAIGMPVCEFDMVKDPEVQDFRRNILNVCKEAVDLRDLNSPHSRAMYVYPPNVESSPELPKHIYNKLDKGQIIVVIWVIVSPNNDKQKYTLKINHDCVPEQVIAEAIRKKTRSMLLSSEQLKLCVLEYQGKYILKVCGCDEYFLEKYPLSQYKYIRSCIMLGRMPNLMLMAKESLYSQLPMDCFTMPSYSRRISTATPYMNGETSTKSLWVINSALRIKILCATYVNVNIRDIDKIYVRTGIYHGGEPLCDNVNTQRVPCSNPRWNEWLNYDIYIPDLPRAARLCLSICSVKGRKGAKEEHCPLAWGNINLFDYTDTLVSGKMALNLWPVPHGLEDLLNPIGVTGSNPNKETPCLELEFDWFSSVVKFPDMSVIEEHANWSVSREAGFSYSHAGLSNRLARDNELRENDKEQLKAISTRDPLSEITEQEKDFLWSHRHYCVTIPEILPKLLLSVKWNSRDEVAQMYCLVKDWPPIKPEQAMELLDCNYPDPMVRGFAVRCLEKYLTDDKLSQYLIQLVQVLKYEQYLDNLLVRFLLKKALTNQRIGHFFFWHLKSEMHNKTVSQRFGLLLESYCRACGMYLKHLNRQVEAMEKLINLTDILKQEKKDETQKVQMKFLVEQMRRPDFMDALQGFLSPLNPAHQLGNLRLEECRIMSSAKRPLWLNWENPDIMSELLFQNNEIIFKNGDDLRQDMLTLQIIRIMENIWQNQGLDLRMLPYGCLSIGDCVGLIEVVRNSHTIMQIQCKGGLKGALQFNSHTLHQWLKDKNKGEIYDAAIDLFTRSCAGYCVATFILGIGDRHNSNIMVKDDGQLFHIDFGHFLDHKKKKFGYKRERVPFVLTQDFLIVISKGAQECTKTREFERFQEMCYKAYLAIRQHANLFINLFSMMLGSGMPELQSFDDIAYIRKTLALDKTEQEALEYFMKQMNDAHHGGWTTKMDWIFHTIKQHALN
T1 sequence (P27986 whole entry partner): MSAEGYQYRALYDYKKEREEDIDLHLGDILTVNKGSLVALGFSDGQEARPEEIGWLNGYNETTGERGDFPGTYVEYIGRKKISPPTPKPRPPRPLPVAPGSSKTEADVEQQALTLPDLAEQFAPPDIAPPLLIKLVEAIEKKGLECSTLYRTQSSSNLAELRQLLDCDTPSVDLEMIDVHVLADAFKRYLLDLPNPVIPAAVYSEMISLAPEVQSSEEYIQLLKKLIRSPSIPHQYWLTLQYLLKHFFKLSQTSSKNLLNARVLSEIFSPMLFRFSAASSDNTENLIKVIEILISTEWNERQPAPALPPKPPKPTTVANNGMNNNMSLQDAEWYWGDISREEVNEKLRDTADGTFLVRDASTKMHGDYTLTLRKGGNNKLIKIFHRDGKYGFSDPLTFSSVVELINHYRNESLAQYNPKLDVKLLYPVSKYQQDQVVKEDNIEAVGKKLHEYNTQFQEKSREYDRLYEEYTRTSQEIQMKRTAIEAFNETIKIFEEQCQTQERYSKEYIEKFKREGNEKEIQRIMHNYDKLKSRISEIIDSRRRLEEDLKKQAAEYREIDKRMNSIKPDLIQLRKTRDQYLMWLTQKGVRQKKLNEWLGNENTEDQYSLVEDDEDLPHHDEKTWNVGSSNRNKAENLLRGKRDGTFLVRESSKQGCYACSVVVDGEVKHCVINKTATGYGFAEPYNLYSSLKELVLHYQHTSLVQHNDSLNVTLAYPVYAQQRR

inhibition of PI3Kα activity ([1]; at 100 nM)	EC50 ([3]; Homo sapiens, PC-3, PC3 proliferation, MTT, 72 h)	Compound	IC50 ([1]; Table 2, mean of at least three determinations, 95 % confidence intervals, read-out: IC50 PI3Kα)	inhibition at 1 µM ([1]; determined at 1 μM, at least triplicate, read-out: Inhibitory activity, PI3K isoform α)	Akt phosphorylation after insulin stimulation [2]	effect on proliferation of PC3 cells ([3]; 72 h of treatment)	Cell proliferation ([3]; PC3 cells, 10 μM of each prodrug)	effect on cell apoptosis [4]
–	–	O=C(O)c1cccc(Cn2cc(-c3cccc4c(=O)cc(N5CCOCC5)[nH]c34)nn2)c1 [Compound 37, 3‐{[4‐(2‐Morpholino‐4‐oxo‐1,4‐dihydroquinolin‐8‐yl)‐1H‐1,2,3‐triazol‐1‐yl]methyl}benzoic acid]	0.018 ± 0.004 µM	> 50%	did not decrease Akt phosphorylation	–	–	–
not able to inhibit PI3Kα activity	2.3 ± 0.8 µM	COC(=O)c1cccc(Cn2cc(-c3cccc4c(=O)cc(N5CCOCC5)[nH]c34)nn2)c1 [Compound 64, Methyl 3‐{[4‐(2‐morpholino‐4‐oxo‐1,4‐dihydroquinolin‐8‐yl)‐1H‐1,2,3‐triazol‐1‐yl]methyl}benzoate]	–	–	able to inhibit the PI3K‐signaling pathway in a dose‐dependent manner	dose‐dependently decreased proliferation	active	did not show any effect in inducing cell apoptosis

From PMC5697638, “Identification of a Potent Phosphoinositide 3‐Kinase Pan Inhibitor Displaying a Strategic Carboxylic Acid Group and Development of Its Prodrugs” (Chemmedchem, 2017)
